Results: patent publication US20030147899A1, “Endogenous hormone adjuvant and uses thereof” (priority 1999, published 2003)
Entries after “also recorded” stand apart in the source; their conditions may differ.

Columns and labels:
[1] = test system: lymphocytes in cervical lymph nodes; experiment: Cellularity of cervical lymph nodes draining the site of the skin DTH reaction; assay type: in vivo, rat; details: ADX animals, epinephrine 0.5 mg/kg, corticosterone 5 mg/kg, or both, OXA challenge 2 h after administration, 48 h after antigen exposure
Procedure: Animals were rapidly sacrificed and cervical lymph nodes were dissected and placed in sterile PBS on ice (n=3 per treatment group). Each lymph node was subsequently weighed and disrupted between the frosted ends of two microscope slides. Suspensions of leukocytes were prepared in PBS and stored on ice for cell counting, immunofluorescent staining, and flow cytometry. White blood cell counts and lymphocyte-neutrophil differentials were obtained on a hematology analyzer (F800, Sysmex, McGraw Park, Ill.). Specific leukocyte subtypes were measured by immunofluorescent antibody staining and subsequent analysis using three color flow cytometry (FACScan, Becton Dickinson, San Jose, Calif.). T cells were identified using the following monoclonal antibodies (Caltag, Burlingame, Calif.): CD3-FITC (1F4), CD4-PE (w3/25), CD8-TC (OX8). Briefly, cell suspensions were incubated with antibody for 20 min at room temperature, washed with PBS, and read on the FACScan with 3,000 to 5,000 events being acquired from each preparation. Appropriate isotype controls were used to set the negative criteria. Data were analyzed using Cell Quest software (Becton Dickinson, San Jose, Calif.). For all experiments, repeated measures were made on each animal. Significant differences between timepoints within a specific leukocyte subpopulation were analyzed using the Student's t-test as a test for significant differences between means. […] Data are expressed as mean ±SEM in all figures. A computer statistics package was used for statistical analyses (SYSTAT v5.2.1, Systat Inc., Evanston, Ill.).

[2] = target: T1, corticosteroid binding globulin (Homo sapiens, UniProt P08185); details: plasma protein; cited from earlier work
T1 sequence (P08185 23-405): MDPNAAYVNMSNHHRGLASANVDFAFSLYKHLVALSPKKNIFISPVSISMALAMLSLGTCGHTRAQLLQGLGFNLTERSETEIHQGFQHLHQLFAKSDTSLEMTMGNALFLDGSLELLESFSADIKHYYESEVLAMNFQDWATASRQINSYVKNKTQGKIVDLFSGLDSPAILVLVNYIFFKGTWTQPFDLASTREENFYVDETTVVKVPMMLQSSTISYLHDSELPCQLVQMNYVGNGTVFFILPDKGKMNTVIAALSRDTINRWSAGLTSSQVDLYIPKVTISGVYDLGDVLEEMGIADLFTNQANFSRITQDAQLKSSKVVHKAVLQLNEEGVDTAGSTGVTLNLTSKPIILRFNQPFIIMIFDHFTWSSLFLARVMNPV

[3] = test system: skin DTH, DNFB challenge (pinna thickness); experiment: Skin DTH response, hormones given before DNFB challenge of previously sensitized animals; assay type: in vivo, rat
Procedure: (§1) Young adult, male Sprague Dawley rats (150-300 g) (Harlan Sprague Dawley, Indianapolis, Ind.) were housed in plastic cages in the accredited (American Association of Accreditation of Laboratory Animal Care) animal facilities of The Rockefeller University (New York, N.Y.). The animal room was maintained on a 12 h light-dark cycle (lights on 7 am). Animals were given rat chow and water ad libitum.
(§2) Bilateral adrenalectomy (ADX) was performed using standard aseptic surgical techniques on animals fully anesthetized with the inhalant, methoxyflurane (Metofane; Pitman-Moore, Washington Crossing, N.J.). Sham adrenalectomized (SHAM) animals went through exactly the same procedure as ADX animals except that their adrenals were not removed. ADX animals were maintained on a low normalizing dose of corticosterone (20 μg/ml) administered through drinking choice of water or 3% saline. This was necessary for restoring important permissive functions of corticosterone which are lost following ADX (18-20). […] Unlike constant replacement (via pellets or osmotic pumps), drinking water corticosterone also facilitates the normal termination of a stress-induced ACTH response (22, 23), and simulates the circadian corticosterone rhythm as animals drink at the beginning of the active period (16).
The concentration and timing of each hormone administered is listed in the text and 3 0 figures. […] Epinephrine (Research Biochemicals International) was dissolved in sterile water.
DTH was induced by challenging the pinnae of previously sensitized rats with 2,4-dinitro-1-fluorobenzene (DNFB, Sigma, St. Louis, Mo.) or oxazalone (OXA, Sigma, St. Louis, Mo). On day 1 of sensitization, animals were anesthetized with the inhalant, methoxyflurane (Metofane; Pitman-Moore, Washington Crossing, N.J.). No anesthesia was used subsequently. An area of approximately 3×4 cm was shaved on the dorsum. The thickness of both pinnae was recorded using a constant-loading dial micrometer (Mitutoyo, Japan). On days 1 and 2 of sensitization, one hundred microliters of DNFB (1% (w/v) in 4:1, acetone:olive oil) or one hundred microliters of OXA (1.5% (w/v) in ethanol) were applied to the shaved dorsum. On day 5, baseline pinna thickness was measured. On day 6, after stress or hormone administration, the dorsal surface of the right pinnae of all animals was challenged with 50 μl of DNFB (0.5% in 4:1 acetone:olive oil) or OXA (0.75% in ethanol). Left pinnae were treated with vehicle. Pinna thickness was measured at the times shown. Measurements were made (on same relative region of pinna) gently and rapidly to avoid displacing or compressing edema fluid and changing pinna thickness.
The immune reaction induced using the above procedure, is characterized by swelling at the site of challenge, and by an infiltration of monocytes/macrophages and lymphocytes into the epidermis and dermis (29-31). A positive correlation between the intensity of the immune reaction and the increase in pinna thickness has been reported (32, 33). This model for skin DTH reactions has been widely used to monitor cell-mediated immune responses in vivo (30, 34).
For all experiments, repeated measures were made on each animal. Significant differences between timepoints within a specific leukocyte subpopulation were analyzed using the Student's t-test as a test for significant differences between means. […] Data are expressed as mean ±SEM in all figures. A computer statistics package was used for statistical analyses (SYSTAT v5.2.1, Systat Inc., Evanston, Ill.).

[4] = test system: DTH reaction mounted against OXA (pinna thickness); experiment: Skin DTH response to OXA challenge, hormones given at sensitization (immunization) phase; assay type: in vivo, rat; details: hormone ip 2 h before sensitization with 1.5% OXA: epinephrine 0.5 mg/kg, corticosterone 5 mg/kg, or both; OXA ear challenge six days after immunization
Procedure: as §1
This was necessary for restoring important permissive functions of corticosterone which are lost following ADX (18-20). […] Unlike constant replacement (via pellets or osmotic pumps), drinking water corticosterone also facilitates the normal termination of a stress-induced ACTH response (22, 23), and simulates the circadian corticosterone rhythm as animals drink at the beginning of the active period (16).
No anesthesia was used subsequently. An area of approximately 3×4 cm was shaved on the dorsum. The thickness of both pinnae was recorded using a constant-loading dial micrometer (Mitutoyo, Japan).
On day 5, baseline pinna thickness was measured. […] Left pinnae were treated with vehicle.
The immune reaction induced using the above procedure, is characterized by swelling at the site of challenge, and by an infiltration of monocytes/macrophages and lymphocytes into the epidermis and dermis (29-31). […]

[5] = test system: skin DTH, OXA challenge (pinna thickness); experiment: Skin DTH response, hormones given before OXA challenge of previously sensitized ADX animals; assay type: in vivo, rat; details: for skin DTH vs vehicle: epinephrine 0.5 mg/kg, corticosterone 5 mg/kg, or both, OXA (0.75%) challenge 2 h after hormone administration
Procedure: as §1, §2
The concentration and timing of each hormone administered is listed in the text and 3 0 figures. […]
DTH was induced by challenging the pinnae of previously sensitized rats with 2,4-dinitro-1-fluorobenzene (DNFB, Sigma, St. Louis, Mo.) or oxazalone (OXA, Sigma, St. Louis, Mo). […] The thickness of both pinnae was recorded using a constant-loading dial micrometer (Mitutoyo, Japan). […] On day 5, baseline pinna thickness was measured. […] Pinna thickness was measured at the times shown. […]
For all experiments, repeated measures were made on each animal. Significant differences between timepoints within a specific leukocyte subpopulation were analyzed using the Student's t-test as a test for significant differences between means. […] Data are expressed as mean ±SEM in all figures. […]

Structure (SMILES)	lymphocyte numbers in cervical lymph nodes vs vehicle [1]	binding to corticosteroid binding globulin [2]	skin DTH vs vehicle ([3]; corticosterone 400 μg/ml in drinking water, chronic (6 days), DNFB challenge)	skin DTH vs vehicle ([3]; corticosterone 400 μg/ml in drinking water, chronic (6 days), DNFB challenge, listed as Corticosterone)	skin DTH vs vehicle ([3]; corticosterone 5 mg/kg ip, acute, ADX animals, DNFB challenge two hours after administration)	skin DTH vs vehicle ([3]; corticosterone 5 mg/kg ip, acute, ADX animals, DNFB challenge two hours after administration, listed as Corticosterone)	skin DTH vs vehicle ([3]; corticosterone 100 or 400 μg/ml in drinking water for four hours (acute), adrenal-intact animals, DNFB challenge)	skin DTH vs vehicle ([3]; corticosterone 100 or 400 μg/ml in drinking water for four hours (acute), adrenal-intact animals, DNFB challenge, listed as Corticosterone)	skin DTH vs vehicle ([3]; corticosterone high dose 40 mg/kg, acute, ADX animals, DNFB challenge)	skin DTH vs vehicle ([3]; corticosterone high dose 40 mg/kg, acute, ADX animals, DNFB challenge, listed as Corticosterone)	DTH response (immune reaction at challenge or recall phase) vs vehicle [4]	immuno-enhancement of skin DTH compared with epinephrine ([5]; corticosterone 5 mg/kg vs epinephrine 500 μg/kg, OXA challenge 2 h after administration)	skin DTH vs vehicle [5]	lymphocyte numbers in cervical lymph nodes vs vehicle ([1]; listed as Epinephrine)	skin DTH vs vehicle ([3]; epinephrine 0.05, 0.25, 0.5 mg/kg, acute, ADX animals, DNFB challenge two hours after administration)	skin DTH vs vehicle ([3]; epinephrine 0.05, 0.25, 0.5 mg/kg, acute, ADX animals, DNFB challenge two hours after administration, listed as Epinephrine)
C[C@]12C[C@H](O)[C@H]3[C@@H](CCC4=CC(=O)CC[C@@]43C)[C@@H]1CC[C@@H]2C(=O)CO [corticosterone]	significantly larger numbers of lymphocytes in cervical lymph nodes; also recorded: higher lymphocyte numbers in cervical lymph nodes	binds a large proportion of circulating corticosterone	significantly suppressed skin DTH	lower DTH responses than control animals	significant enhancement of skin DTH	significantly larger DTH response than vehicle treated animals	significant enhancement of skin DTH; also recorded: enhanced the DTH response	significantly larger DTH response than vehicle treated animals	significantly suppressed skin DTH	lower DTH responses than control animals	enhance the immune reaction observed during the challenge or recall phase of DTH	greater than that induced by epinephrine	enhanced skin DTH; also recorded: enhanced DTH response			
CNC[C@H](O)c1ccc(O)c(O)c1 [epinephrine, reference compound]	significantly larger numbers of lymphocytes in cervical lymph nodes										enhance the immune reaction observed during the challenge or recall phase of DTH		enhanced skin DTH; also recorded: enhanced DTH response	higher lymphocyte numbers in cervical lymph nodes	significant dose-dependent enhancement of skin DTH	dose dependent increase in skin DTH
